Like-named read-outs stand apart in the source and are kept apart here. One block for each compound: values may come before it.
Experiments:
[1] = test system: C. parvum Iowa isolate; experiment: Immunofluorescence assay for C. parvum growth inhibition in HCT-8 cells; format: cell-based, Cryptosporidium parvum; conditions: read-out: C. parvum EC50 (95% CI)
Procedure: Inhibition of C. parvum growth was measured as described previously ([20]). Oocysts were excysted by treatment with 10 mM hydrochloric acid (10 min at 37°C), followed by exposure to 2 mM sodium taurocholate (Sigma-Aldrich) in PBS for 10 min at 16°C. Excysted oocysts were then added to >95% confluent HCT-8 cell monolayers in 384-well plates at a concentration of 5,500 Iowa isolate oocysts per well. For C. parvum field isolates, the inoculum required to yield an infection level similar to that produced by 5,500 Iowa isolate oocysts per well was determined and was used for subsequent assays of parasite inhibition. Compounds were added just before or 3 h after infection, and assay plates were incubated for 48 h postinfection at 37°C under 5% CO2. Wells were then washed three times with PBS containing 111 mM D-galactose, fixed with 4% paraformaldehyde in PBS for 15 min at room temperature, permeabilized with 0.25% Triton X-100 for 10 min at 37°C, washed three times with PBS with 0.1% Tween 20, and blocked with 4% bovine serum albumin (BSA) in PBS for 2 h at 37°C or 4°C overnight. Parasitophorous vacuoles were stained with 1.33 μg/ml of fluorescein-labeled Vicia villosa lectin (Vector Laboratories) diluted in 1% BSA in PBS with 0.1% Tween 20 for 1 h at 37°C, followed by the addition of Hoechst 33258 (AnaSpec) at a final concentration of 0.09 mM diluted in water for another 15 min at 37°C. Wells were then washed five times with PBS containing 0.1% Tween 20. A Nikon Eclipse TE2000 epifluorescence microscope with an automated stage was programmed using NIS-Elements Advanced Research software (Nikon, USA) to focus on the center of each well and take a 3-by-3 composite image using an EXi Blue fluorescence microscopy camera (QImaging, Canada) with a 20× objective (numerical aperture, 0.45). Nucleus and parasite images were exported separately as .tif files and were analyzed using macros developed on the ImageJ platform (National Institutes of Health) ([20]). The only modification from the published macro used to count parasites was that the lower size threshold for parasites was decreased from 16.5 to 4 pixels (1 pixel = 0.65 μm). Graphs were plotted, and half-maximal effective concentration (EC50) and 90% effective concentration (EC90) values were calculated using GraphPad Prism software, version 6.01. For every C. parvum field isolate experiment, a dose-response experiment against the C. parvum Iowa isolate was performed simultaneously as a reference.

[2] = test system: C. parvum Iowa isolate; experiment: NOD SCID gamma (NSG) mouse model of chronic cryptosporidiosis, fecal qPCR; format: in vivo, NOD SCID gamma mice; conditions: for short-term efficacy on oocyst shedding in NSG mice: Fig. 2B, dose not given
Procedure: All NOD SCID gamma mouse studies were performed in compliance with animal care guidelines and were approved by the University of Vermont Institutional Animal Care and Use Committee. NOD SCID gamma mice with normal flora (NOD.Cg-Prkdc^scid Il2rg^tm1Wjl/SzJ) ([38]) were purchased from The Jackson Laboratory (Bar Harbor, ME, USA) and were housed for at least a week for acclimatization. At the age of 4 to 5 weeks, mice were infected with 10^5 C. parvum Iowa isolate oocysts. Fecal oocyst shedding is detected 6 days after infection using a quantitative PCR (qPCR assay), so treatment was started on day 7 after infection. Mice (4 per experimental group) were treated either orally (p.o.) with MMV665917 at 30 or 60 mg/kg BID, intraperitoneally (i.p.) with MMV665917 at 60 mg/kg BID, or p.o. with 1,000 mg/kg paromomycin BID. MMV665917 was suspended in DMSO, sonicated three times, for 30 s each time, to obtain a fine suspension, aliquoted, and stored at −80°C for <10 days. On the day of treatment, aliquots of MMV665917 diluted in DMSO were thawed, mixed well using a vortexer, diluted with 1% HPMC, sonicated as before (three times for 30 s each time), mixed well, and given to mice either p.o. or by i.p. injection. A final concentration of 5% DMSO was used in 100 μl of 1% HPMC per dose. For the additional Malaria Box compounds and compound variants tested, the doses were prepared in the same way, and the specific dosages tested are given in Table S3 in the supplemental material. Mice were treated for either 4 or 7 days, allowed to recover for a week, and then sacrificed. Oocyst shedding in feces was monitored throughout by qPCR, including time points while on treatment and while monitoring for relapsed infection following completion of treatment in Fig. 2A.

[3] = test system: C. parvum Iowa isolate; experiment: IFN-γ knockout mouse model of acute cryptosporidiosis; format: in vivo, C57BL/6 IFN-γ−/− mice; conditions: dose not given
Procedure: All interferon gamma (IFN-γ) knockout mouse studies were performed in compliance with animal care guidelines and were approved by the Explora BioLabs (San Diego, CA) Institutional Animal Care and Use Committee. Four-week-old female C57BL/6 IFN-γ^−/− mice with normal flora were purchased from The Jackson Laboratory and were acclimated for 3 days prior to infection by oral gavage with 10^6 C. parvum Iowa isolate oocysts (Sterling Parasitology Laboratory, University of Arizona) suspended in sterile distilled water. At various times postinfection, mice were treated with the compound vehicle alone, clofazimine (used as a positive control), or MMV665917. As described previously, fecal parasite shedding was quantified at various times postinfection by isolating oocysts using a sucrose gradient centrifugation method ([39]), followed by staining for immunofluorescence microscopy using a fluorescein isothiocyanate-conjugated mouse anti-Cryptosporidium antibody (0.25 μg per sample) and analysis with a Guava easyCyte flow cytometer and CytoSoft data acquisition and analysis software (version 5.3; Guava Technologies, Inc.). Oocyst counts per milliliter of sample were exported to Excel (Microsoft Corp.) and were normalized to counts per milligram of feces. Final data analysis and graphing were carried out using GraphPad Prism software (version 6.01).

[4] = test system: C. parvum; experiment: Parasite persistence (time-kill) assay in HCT-8 cells; format: cell-based, Cryptosporidium parvum; conditions: for parasite persistence: highest nontoxic concentrations, added 24 h after infection
Procedure: Excysted C. parvum oocysts were added to >90% confluent HCT-8 cells in 384-well plates. […] At ∼24 h (i.e., the time of compound addition) and at various time intervals thereafter, parasites were washed, fixed, permeabilized, stained, and imaged as for the C. parvum growth assay. For the extended-compound-exposure experiments, the medium and compound were replaced every 3 days. A separate 384-well plate was used for each time interval. Parasite numbers were normalized to host cell nucleus numbers and are expressed as the percentage of parasites per host cell nucleus. In order to fit parasite decay curves, the effect of drugs was isolated from expected changes in parasite numbers over time by expressing the number of parasites as the percentage of the number of parasites with the control, dimethyl sulfoxide (DMSO), for each time point. Exponential decay curves were fit using GraphPad Prism software, version 6.01, and curve validity was assessed using the replicates test.

[5] = Cryptosporidium parvum, HCT-8, Table S1, confirmed screening hits
[6] = dose 50 mg/kg, interval 12 h, duration 4 days
[7] = dose 100 mg/kg, interval 24 h, duration 7 days
[8] = Cryptosporidium parvum, HCT-8, Table S3, SAR of MMV665917

EC50 [1, 5]: 590 nM
SMILES: Oc1c(C(Nc2ccccn2)c2cccc(Oc3ccccc3)c2)ccc2cccnc12 (stereo not shown) [MMV665814, Oc1c(ccc2cccnc12)C(Nc3ccccn3)c4cccc(Oc5ccccc5)c4]
NSG efficacy [2, 6]: No

EC50 [1, 5]: 1800 nM
SMILES: CSc1ccccc1C(=O)Nc1nc(-c2ccccn2)cs1 [MMV001246, CSc1ccccc1C(=O)Nc2nc(cs2)c3ccccn3]
NSG efficacy [2, 6]: No

SMILES: COc1ccc(Nc2nc(NCc3ccccc3Cl)c3ccccc3n2)cc1Cl [MMV006169 v3, COc1ccc(cc1Cl)Nc1nc(NCc2ccccc2Cl)c2c(n1)cccc2]
NSG efficacy [2, 6]: No

SMILES: NC[C@@H]1O[C@H](O[C@H]2[C@@H](O)[C@H](O[C@@H]3[C@@H](O)[C@H](N)C[C@H](N)[C@H]3O[C@H]3O[C@H](CO)[C@@H](O)[C@H](O)[C@H]3N)O[C@@H]2CO)[C@H](N)[C@@H](O)[C@@H]1O [paromomycin]
short-term efficacy on oocyst shedding in NSG mice [2]: ineffective
relapse after cessation of treatment ([2]; paromomycin 1,000 mg/kg p.o. BID, 7 days): relapsed promptly
efficacy in IFN-γ KO mouse model of acute infection [3]: good efficacy
parasiticidal or parasitistatic for C. parvum [4]: parasitistatic
percentage of host cells infected, extended treatment ([4]; day 13 of treatment, 12 × EC90, medium and drug replaced every 3 days): closely mirrored the pattern for the vehicle control
parasite persistence [4]: parasites persist

SMILES: Cc1cccc(-n2ncc3c(=O)[nH]c(-n4nc(C)cc4NC(=O)C4CC4)nc32)c1 [MMV403679 v2, c31c(cnn1-c2cc(ccc2)C)C(=O)NC(=N3)n4c(cc(n4)C)NC(=O)C5CC5]
NSG efficacy [2, 7]: No

SMILES: Cc1cccc(-n2ncc3c(=O)[nH]c(-n4nc(C)cc4N)nc32)c1 [MMV403679 v5, c31c(cnn1-c2cc(ccc2)C)C(=O)NC(=N3)n4c(cc(n4)C)N]
NSG efficacy [2, 7]: No

SMILES: Cc1cccc(-n2ncc3c(=O)[nH]c(-n4nc(C)cc4NC(=O)C4CCCC4)nc32)c1 [MMV403679 v3, c31c(cnn1-c2cc(ccc2)C)C(=O)NC(=N3)n4c(cc(n4)C)NC(=O)C5CCCC5]
NSG efficacy [2, 7]: No

EC50 ([1]; Table S1, confirmed screening hits): 1500 nM
SMILES: c1ccc(CNc2nc(Nc3ccccc3)nc3ccccc23)cc1 [MMV006169, C(Nc1nc(Nc2ccccc2)nc3ccccc13)c4ccccc4]
NSG efficacy [2, 6]: No

SMILES: CC(=O)Oc1ccccc1C(=O)Nc1ncc([N+](=O)[O-])s1 [nitazoxanide]
short-term efficacy on oocyst shedding in NSG mice [2]: did not reduce oocyst shedding
parasiticidal or parasitistatic for C. parvum [4]: parasitistatic
parasite persistence [4]: parasites persist

EC50 [1, 5]: 3300 nM
SMILES: O=C(Nc1nc(-c2ccccn2)cs1)c1ccccc1Br [MMV665909, Brc1ccccc1C(=O)Nc2nc(cs2)c3ccccn3]
NSG efficacy [2, 6]: No

SMILES: CN(C)c1ccc(C(O)(c2ccc(N(C)C)cc2)c2ccc(N(C)C)cc2)cc1 [MMV665941, CN(C)c1ccc(cc1)C(O)(c2ccc(cc2)N(C)C)c3ccc(cc3)N(C)C]
EC50 [1, 5]: 830 nM
NSG efficacy [2, 6]: No

SMILES: Cc1cc(NC(=O)c2cc3ccccc3o2)n(-c2nc3c(cnn3-c3ccccc3)c(=O)[nH]2)n1 [MMV403679 v4, c31c(cnn1-c2ccccc2)C(=O)NC(=N3)n4c(cc(n4)C)NC(=O)c5oc6c(c5)cccc6]
NSG efficacy [2, 7]: No

SMILES: c1ccc(CNc2nc(NC3CCCC3)nc3ccccc23)cc1 [MMV006169 v2, C1CCC(C1)Nc1nc(NCc2ccccc2)c2c(n1)cccc2]
NSG efficacy [2, 6]: No

SMILES: CC(C)/N=c1\cc2n(-c3ccc(Cl)cc3)c3ccccc3nc-2cc1Nc1ccc(Cl)cc1 [clofazimine]
short-term efficacy on oocyst shedding in NSG mice [2]: completely lacked efficacy
efficacy in IFN-γ KO mouse model of acute infection [3]: confirmed
parasiticidal or parasitistatic for C. parvum [4]: parasitistatic
parasite persistence [4]: parasites persist

EC50 [1, 5]: 2600 nM
SMILES: O=C1c2ccc3c4c(ccc(c24)C(=O)N1CCCCO)C(=O)N(CCCCO)C3=O [MMV009085, OCCCCN1C(=O)c2ccc3C(=O)N(CCCCO)C(=O)c4ccc(C1=O)c2c34]

SMILES: CC(=O)N1CCN(c2ccc3nnc(C(F)(F)F)n3n2)CC1 [Compound D-12, CC(=O)N1CCN(CC1)c1ccc2n(n1)c(nn2)C(F)(F)F]
EC50 [1, 8]: > 25000 nM

SMILES: Cc1nnc2ccc(N3CCN(C(=O)OC(C)(C)C)CC3)nn12 [Compound D-60, O=C(N1CCN(CC1)c1ccc2n(n1)c(C)nn2)OC(C)(C)C]
EC50 [1, 8]: > 25000 nM

SMILES: O=C(Nc1ccc(Cl)c(Cl)c1)N1CCN(c2ccc3nncn3n2)CC1 [Compound D-28, O=C(N1CCN(CC1)c1ccc2n(n1)cnn2)Nc1ccc(c(c1)Cl)Cl]
EC50 [1, 8]: 550 nM

SMILES: COc1ccc(C(=O)NC(c2ccc(Cl)cc2Cl)c2cc(Cl)c3cccnc3c2O)cc1 (stereo not shown) [MMV666054, COc1ccc(cc1)C(=O)NC(c2ccc(Cl)cc2Cl)c3cc(Cl)c4cccnc4c3O]
EC50 [1, 5]: 810 nM

SMILES: O=C(Nc1ccc2c(c1)OCO2)N1CCN(c2ccc3nncn3n2)CC1 [Compound D-19, O=C(N1CCN(CC1)c1ccc2n(n1)cnn2)Nc1ccc2c(c1)OCO2]
EC50 [1, 8]: > 25000 nM

SMILES: COc1ccc(C(=O)Nc2cc(C)nn2-c2nc3c(cnn3-c3cccc(C)c3)c(=O)[nH]2)c(OC)c1 [MMV403679 v1, c31c(cnn1-c2cc(ccc2)C)C(=O)NC(=N3)n4c(cc(n4)C)NC(=O)c5c(cc(cc5)OC)OC]
NSG efficacy [2, 7]: No

EC50 [1, 5]: 54 nM
SMILES: COc1cccc(C(=O)NC(c2ccc(C)cc2)c2cc(Cl)c3cccnc3c2O)c1 (stereo not shown) [MMV665969, COc1cccc(c1)C(=O)NC(c2ccc(C)cc2)c3cc(Cl)c4cccnc4c3O]
NSG efficacy [2, 6]: No

SMILES: O=C(c1cc(Cl)ccc1Cl)N1CCN(c2ccc3nncn3n2)CC1 [Compound D-47, Clc1ccc(c(c1)C(=O)N1CCN(CC1)c1ccc2n(n1)cnn2)Cl]
EC50 [1, 8]: > 25000 nM

EC50 [1, 5]: 3500 nM
SMILES: COc1cccc(Nc2nc(NCCO)c3ccccc3n2)c1 [MMV011944, n1c(NCCO)c2c(cccc2)nc1Nc3cccc(OC)c3]

From paper PMC5913971, “A Novel Piperazine-Based Drug Lead for Cryptosporidiosis from the Medicines for Malaria Venture Open-Access Malaria Box” (Antimicrobial Agents and Chemotherapy, 2018)
